Measured values published in patent US20100261246A1, “METHOD FOR INHIBITING TELOMERASE REACTION” (PANASONIC CORPORATION, priority 2009, published 2010).

Legend:
[1] = tested on: double-stranded DNA; assay: Absorbance 480 to 800 nm of phthalocyanine mixed with double-stranded DNA solution; assay type: binding; settings: 15 μM compound solution, DNA 50 μM, pH7
Protocol: A solution of 50 mM HEPES and 100 mM NaCl, pH7 (total volume: 100 μL) containing a single-stranded DNA consisting of a sequence of 5′-AGAAGAGAAAGA-3′ (SEQ ID NO: 4) and a single-stranded DNA consisting of a sequence of 5′-TCTTTCTCTTCT-3′ (SEQ ID NO: 5) at each concentration of 50 μM was prepared, which was incubated at 90° C. for 5 min, and thereafter cooled to 0° C. at a rate of temperature fall of 2° C./min, followed by finally incubating at 0° C. for 2 hrs. Since the aforementioned two kinds of DNAs are complementary to one another, both DNAs form a double-stranded DNA in the solution as a result of the incubation (hereafter, the solution referred to as “double-stranded DNA solution”).
(§1) Next, the aforementioned CuPC solution and single-stranded DNA solution, and the aforementioned CuPC solution and double-stranded DNA solution were similarly mixed, respectively. And then the absorbance of these liquid mixtures was measured at 480 to 800 nm. FIG. 9(A) and FIG. 9(B) show the results of the measurement in the cases of the single-stranded DNA solution and the double-stranded DNA solution, respectively.
as §1, with “NiPC” for “CuPC”, “respectively;” for “respectively. And then”, “11(A)” for “9(A)”, “11(B)” for “9(B)”, “respectively. In each drawing, the result obtained when the NC solution was used is also shown together.” for “respectively.”
as §1, with “PC” for “CuPC”, “respectively;” for “respectively. And then”, “mixture” for “mixtures”, “13(A)” for “9(A)”, “13(B)” for “9(B)”, “respectively. In each drawing, the result obtained when the NC solution was used is also shown together.” for “respectively.”
as §1, with “CoPC” for “CuPC”, “respectively, and” for “respectively. And”, “15(A)” for “9(A)”, “15(B)” for “9(B)”, “respectively. In each drawing, the result obtained when the NC solution was used is also shown together.” for “respectively.”

[2] = tested on: TaKaLa LA Taq Hot Start Version (polymerase reaction); assay: PCR control band in the separate telomerase reaction / PCR experiment; assay type: biochemical; settings: 10 μM, no addition of λDNA
Protocol: Moreover, effects of inhibiting telomerase by TMPyP and anionic phthalocyanines were compared in Comparative Example 3 and Example 4 to 5 below. In these experiments, the S7700 kit was used similarly to the aforementioned Comparative Examples 1 to 2 and Examples 1 to 3. However, in Comparative Examples 1 to 2 and Examples 1 to 3 described above, the reagents required only for the telomerase reaction and PCR were all mixed first, and the telomerase reaction and PCR were carried out sequentially by regulating the reaction temperature. To the contrary, in the following Comparative Example 3 and Examples 4 to 5, only the reagents required for the telomerase reaction were first mixed to carry out a telomerase reaction, and a part of the reaction solution and the reagents required for the PCR were mixed to carry out the PCR.
Next, 4 μL of a solution prepared by diluting the solution after the telomerase reaction 20 times with milliQ water, 0.2 μL of 50× dNTP Mix, 0.2 μL of TS primer, 0.2 μL of Primer Mix, 0.1 μL of TaKaLa LA Taq Hot Start Version (manufactured by Takara Bio Inc.), 1 μL of 10× LA PCR buffer II (Mg^2+ plus) (buffer solution included in TaKaLa LA Taq Hot Start Version), and 4.3 μL of milliQ water were mixed to prepare a PCR solution in a total volume of 10 μL. Then, PCR was carried out by allowing this PCR solution to stand under temperature conditions in which a thermo cycle of: 30 sec at 95° C.; 30 sec at 59° C.; and 30 sec at 72° C. was repeated 30 times.
Finally, the solution after the PCR was electrophoresed on a 10% polyacrylamide gel, and stained with GelStar Nucleic Acid Stain (manufactured by Takara Bio Inc.). […] In the order from the leftmost lane, the results with final concentrations of TMPyP being 0 M, 0.1 μM, 0.3 μM, 1 μM, 3 μM and 10 μM are shown.

amplification of the PCR control (band) [2]	Substance	interaction with the double-stranded DNA (absorption spectrum vs NC solution) [1]
not inhibited	Copper(II) phthalocyanine-3,4′,4″,4′″-tetrasulfonic acid tetrasodium salt [CuPC]	an interaction did not occur
not inhibited	Nickel(II) phthalocyanine tetrasulfonic acid tetrasodium salt [NiPC]	an interaction did not occur
